Measured values taken from patent US20090305995A1, “AGONISTS AND ANTAGONISTS OF THE SOMATOSTATIN RECEPTOR” (Novartis AG, priority 2004, published 2009).
Values after ≈ are worked out from the molar mass of the structure shown. Like-named read-outs stand apart in the source and are kept apart here.

Assays:
hsst4 receptor = molecular target: T1, hsst4 receptor (Homo sapiens, UniProt P31391); assay: radioligand-binding displacement assay ([125I]LTT-SRIF28), receptor expressed in CCL39 cells; conditions: hsst4; [125I]LTT-SRIF28 displacement
T1 construct: expressed in transfected cells; host or cells: Chinese hamster lung fibroblast (CCL39) cells
Procedure: (§1) The generated peptides are tested for their affinity to bind to human SRIF receptors expressed in Chinese hamster lung fibroblast (CCL39) cells. This is achieved in radioligand-binding assays, a displacement experiment in which the concentration of a substance is measured which is necessary for the replacement of 50% of a specifically bound radioligand ([^125I]LTT-SRIF28). Specific binding is measured as the total binding of receptor-specific radioligand minus the amount of radioligand bound in presence of unmarked SRIF-14 (100 nM, nonspecific binding).

human SRIF receptors = assay: radioligand-binding displacement assay on the human SRIF receptor family (selectivity)
Procedure: as §1

[1] = high throughput solubility (HT-Solubility); assay type: physicochemical
[2] = high throughput permeability (HT-Permeability, log Pe); assay type: physicochemical; conditions: PAMPA, Pe in cm/s
[3] = logP octanol by pH-metric titration (GLpKa instrument); assay type: physicochemical; conditions: read-out: log P/D logP octanol
Procedure: In order to have a real measure of log P values for highly polar compounds, respective values for compounds 1 to 3 (C-terminal L-β-homothreonine amides) and compounds 7 to 9 (C-terminal 4-amino-5-methyl-dihydro-fuan-2-ones) are measured by employing pH-metric titration technology using a GLpKa instrument (Box et al. 2003). The high polarity of these two mixed α/β^3-tetrapeptides can be controlled by N-terminal introduction of lipophilization tags. The conjugation with fatty acid analogs leads to compounds with druglike polarity (5, 6, 10, 11, 12, 13, 14, 15, 16, 17, 18 and 26).

T1 sequence (P31391 whole entry): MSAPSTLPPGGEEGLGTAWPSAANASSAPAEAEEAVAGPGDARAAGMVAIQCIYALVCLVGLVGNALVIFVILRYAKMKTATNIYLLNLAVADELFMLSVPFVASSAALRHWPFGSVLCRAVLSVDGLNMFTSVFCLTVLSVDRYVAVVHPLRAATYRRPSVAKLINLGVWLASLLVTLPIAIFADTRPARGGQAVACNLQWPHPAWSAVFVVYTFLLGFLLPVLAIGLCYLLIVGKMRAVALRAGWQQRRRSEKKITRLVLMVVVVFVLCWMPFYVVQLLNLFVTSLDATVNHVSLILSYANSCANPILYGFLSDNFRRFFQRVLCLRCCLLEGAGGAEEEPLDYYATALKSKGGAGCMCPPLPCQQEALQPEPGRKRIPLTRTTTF

NCCCC[C@@H](CC(N)=O)NC(=O)[C@@H](Cc1c[nH]c2ccccc12)NC(=O)C[C@@H](N)Cc1ccccc1 [Compound 59, (S)-β^3-HPhe-(R)-Trp-(S)-β^3-HLys-NH2]
Kd (hsst4 receptor): 1.51 µM
affinity to the receptors of the SRIF family (in words) (human SRIF receptors): only very low affinity
solubility ([1]; pH 1, pH 1.0, read-out: HT-Solubility pH 1.0): 101 µg/mL (≈ 200 µM)
solubility ([1]; pH 6.8, pH 6.8, read-out: HT-Solubility pH 6.8): 50.7 µg/mL (≈ 100 µM)
Papp ([2]; pH 4, pH 4.0, read-out: HT-Permeability logPe pH 4.0 (converted)): 1 ×10⁻⁶ cm/s
Papp ([2]; pH 6.8, pH 6.8, read-out: HT-Permeability logPe pH 6.8 (converted)): 3.98 ×10⁻⁶ cm/s
Papp ([2]; pH 8, pH 8.0, read-out: HT-Permeability logPe pH 8.0 (converted)): 3.16 ×10⁻⁶ cm/s
logP [3]: 1
